From patent US7563822B2, “Agents for the prevention or treatment of renal diseases” (Kissei Pharmaceutical Co., Ltd., priority 2002, dated 2009) come the findings set out here.

One data set has as its system ICR mice. Kind of data set: Acute toxicity test, tail vein administration. The data set is classed as in vivo. To be noted: male ICR mice, 24 hours. On the procedure: Male ICR mice aged 7 weeks (SLC) were divided into several groups consisting of 5 mice. […] The solution was administered through the tail vein at an infusion rate of 1 mL/minute. Observations were performed at constant interval, and the survival rate was judged for 24 hours.

For data set [1], the system named is db/db mice. Kind of data set: Inhibitory effect on hypercoagulable state in db/db mice (plasma TAT level). Type of data set: in vivo. To be noted: 100 mg/kg orally, one hour after administration. As to the method: Thirty two weeks old male db/db mice (11 individuals) and wild type +m/+m mice (6 individuals) were used. db/db Mice were divided into two groups, a 0.5% methylcellulose solution containing a test compound at 100 mg/kg was orally administrated to one group (test compound group, 6 individuals). On the other hand, a 0.5% methylcellulose solution alone was orally administrated to another group (control group, 5 individuals) and +m/+m mice. One hour after administration, mice were anesthetized with diethyl ether. […] Plasma thrombin-antithrombin III complex (TAT) level was measured using an EIA (enzyme immunoassay) kit (Dade behring). […] In addition, it is shown that * in the Table has a significant difference (p<0.05) compared with control group.

The subject of data set [2] is db/db mice. The data set is described as follows: Inhibitory effect on development of diabetic nephropathy in db/db mice (urine albumin/creatinine ratio). Type of data set: in vivo. To be noted: 100 mg/kg orally twice a day for 10 weeks. On the procedure: Six weeks old male db/db mice (20 individuals) and non-diabetic type db/+m mice (10 individuals) were used. db/db Mice were divided into two groups (each 10 individuals), a test compound suspended in a 0.5% methylcellulose solution was orally administrated at 100 mg/kg to one group (test compound group) twice a day. On the other hand, a 0.5% methylcellulose solution alone was orally administrated to another group (control group) and db/+m mice twice a day. After continuing administration for 10 weeks, urine collection was performed for each mouse using a metabolism cage for 24 hours. Insoluble substances in collected urine samples were removed by centrifugal separation. The urine albumin/creatinine ratio which can be obtained by rectifying the urine albumin concentration by the urine creatinine concentration was evaluated as the index of the urine protein excretion. In addition, the urine albumin/creatinine ratio was calculated based on the formula below. Urine albumin/creatinine ratio=Urine albumin concentration/Urine creatinine concentration Urine albumin concentration was measured using a Murine Microalbuminurea ELISA Kit (Exocell Icc.), and urine creatinine concentration was measured using a commercial kit for creatinine (Wako). […] In addition, it is shown that * in the Table has a significant difference (p<0.05) compared with control group.

Data set [3] deals with Normal human mesangial cells. The data set is described as follows: Inhibitory effect on human FXa-induced human mesangial cell proliferation (DNA amount by fluorescence). The data set is classed as cell-based. To be noted: for Fluorescence intensity: FXa 20 nM, 111 hours culture. As to the method:
Normal human mesangial cells were seeded at 10000 cells/200 μL of Mesangial cell growth medium/well in 96-well plates, and cultured in CO2 incubator (37° C., O2:CO2=95:5). One day after seeding, cells were rinsed with Mesangial cell basal medium containing 0.5% bovine serum albumin (not containing growth factors), and then replaced the medium with Mesangial cell basal medium containing 0.5% bovine serum albumin (not containing growth factors) which was containing human activated coagulation factor X (hereinafter referred to as FXa; Calbiochem) and a test compound of certain concentrations, and cultured for 111 hours in CO2 incubator (37° C., O2:CO2=95:5). After cultivation, cells were rinsed with Hank's balanced salt solution at 250 μL/well, and frozen preservation of the cells at −30° C. was carried out until the measurement of the amount of DNAs for every plate. For measurement of the amount of DNAs, fluorescence intensity (measurement condition: excitation 480 nm; emission 520 nm) was estimated using Cell Proliferation Assay Kit (Molecular Probe). […] In addition, it is shown that * in the Table has a significant difference (p<0.05) compared with the group which was added FXa alone.

Take `CS(=O)(=O)c1ccccc1-c1ccc(CCNS(=O)(=O)c2cc(C(=N)NO)ccc2O)c(OCC(=O)O)c1` [Compound 47, [4-[2-[2-Hydroxy-5-(N-hydroxycarbamimidoyl)benzenesulfonylamino]ethyl]-2′-methanesulfonylbiphenyl-3-yloxy]acetic acid]: the Number of death in the data set on ICR mice (Method A: 50 mg/10 mL/kg) and in the data set with ICR mice (Method B: 100 mg/10 mL/kg) was 0/5 throughout.

On to `CCCCOC(=O)COc1cc(-c2ccccc2S(C)(=O)=O)ccc1CCNS(=O)(=O)c1cc(C(=N)NO)ccc1O.Cl` [Compound 48, n-Butyl [4-[2-[2-Hydroxy-5-(N-hydroxycarbamimidoyl)-benzenesulfonylamino]ethyl]-2′-methanesulfonylbiphenyl-3-yloxy]acetate hydrochloride], for which the “Effect on plasma TAT level / hypercoagulable state (in words)” value with db/db mice [1] is “decreased plasma TAT level significantly”. In addition, the “Plasma thrombin-antithrombin III complex level” value in the data set on db/db mice [1] (* p<0.05 vs control group (69.25)) is reported as 8.31*. The “Inhibition of urine albumin excretion (in words)” value with db/db mice [2] is “inhibited urine albumin excretion significantly”. Further, the Urine albumin/creatinine ratio in the data set on db/db mice [2] (24 hours urine, * p<0.05 vs control group (0.386)) is 0.202*.

Regarding `CS(=O)(=O)c1ccccc1-c1ccc(CCNS(=O)(=O)c2cc(C(=N)N)ccc2O)c(OCC(=O)O)c1.Cl` [Compound 33, [4-[2-(5-Carbamimidoyl-2-hydroxybenzenesulfonylamino)-ethyl]-2′-methanesulfonoylbiphenyl-3-yloxy]acetic acidhydrochloride], in the data set on ICR mice (Method B: 100 mg/10 mL/kg), the Number of death was 0/5. In data set [3] (FXa-induced human mesangial cells), the “Inhibition of human FXa-induced mesangial cell proliferation (in words)” value is “inhibited human FXa-induced mesangial cell proliferation concentration-dependently”. The Fluorescence intensity in data set [3] (test compound 1 μM, FXa alone 227.0, no FXa 186.8) is on record as 206.2; in data set [3] (test compound 10 μM, * p<0.05 vs FXa alone (227.0)), 178.3*.
